Results from patent US7396854B2, “Use of serotonergic compound for a method of treatment of hot flushes in post-menopausal women” (N.V. Organon, priority 2001, dated 2008).
Counter-ions that a name gives are not always drawn.

Tested on: Male rats (HSD/Cpb:WU)
Assay: telemetric body temperature measurements in freely moving rats (rise in core body temperature after manipulation for injection)
Type: in vivo
Details: subcutaneous, 22 mg/kg
From the text: Male rats (HSD/Cpb:WU, Harlan Sprague Dawley, Zeist, The Netherlands), weighing 350-480 g, were used. The rats were implanted with a Physio Tel TA11CTA-F40 Implant (Data Sciences International) under pentobarbital anesthesia. After surgery the rats were housed individually in a type II clear MACROLON™ cage (23×17××14 cm). The cages were placed on receivers (RLA 1020). After a recovery and adaptation period of at least one week the rats were used for the experiments. On the experimental day, body temperature, heart rate and locomotor activity was monitored for 30 minutes prior to injection of vehicle or test compound. This period provides a baseline core body temperature relative to which the changes of body temperature after the manipulation of the rats for injection are expressed. After 30 minutes the rats were injected subcutaneously with vehicle or test compound and the same parameters were measured for at least 60 minutes. Immediately after injection the core body temperature rises. Compounds inhibiting this rise in temperature reveal an inhibiting effect on acute body heat production. Results obtained with other parameters, such as the effect on heart rate and on locomotor activity are not presented here. 6 animals were used for measurement of each dose of compound
Data were analyzed using Dataquest IV Data Acquisition System Ver 2.2.
Compounds were dissolved in NaCl 0.9% (m/v) in water as vehicle for subcutaneous injection.

SMILES: CNCCC(Oc1ccc(C(F)(F)F)cc1)c1ccccc1 (stereo not drawn) [Fluoxetine, Fluoxetine HCl, reference compound]
- absolute mean increments in body temperature relative to baseline during 30 minutes prior to manipulation (5 minutes after injection): 0.28 °C
- absolute mean increments in body temperature relative to baseline during 30 minutes prior to manipulation (10 minutes after injection): 0.59 °C
- absolute mean increments in body temperature relative to baseline during 30 minutes prior to manipulation (15 minutes after injection): 0.71 °C
- absolute mean increments in body temperature relative to baseline during 30 minutes prior to manipulation (20 minutes after injection): 0.72 °C
- absolute mean increments in body temperature relative to baseline during 30 minutes prior to manipulation (25 minutes after injection): 0.66 °C
- absolute mean increments in body temperature relative to baseline during 30 minutes prior to manipulation (30 minutes after injection): 0.56 °C
- absolute mean increments in body temperature relative to baseline during 30 minutes prior to manipulation (35 minutes after injection): 0.55 °C
- absolute mean increments in body temperature relative to baseline during 30 minutes prior to manipulation (40 minutes after injection): 0.45 °C
- absolute mean increments in body temperature relative to baseline during 30 minutes prior to manipulation (45 minutes after injection): 0.38 °C
- absolute mean increments in body temperature relative to baseline during 30 minutes prior to manipulation (50 minutes after injection): 0.27 °C
- absolute mean increments in body temperature relative to baseline during 30 minutes prior to manipulation (55 minutes after injection): 0.29 °C
- absolute mean increments in body temperature relative to baseline during 30 minutes prior to manipulation (60 minutes after injection): 0.85 °C
